{"source": "paper PMC4579345", "about": "(Journal of acquired immune deficiency syndromes (1999), 2015)", "key": {"[1]": {"assay": "Cord blood and maternal plasma darunavir concentrations at delivery", "assay_type": "in vivo, human"}, "[2]": {"assay": "Clinical and laboratory toxicity monitoring of mothers and infants", "conditions": "human, in vivo"}, "[3]": {"tested_on": "HIV-1 RNA", "assay": "Maternal HIV RNA at delivery and infant HIV infection status", "assay_type": "in vivo", "conditions": "median (range)"}, "[4]": {"tested_on": "wild type HIV", "conditions": "cited from earlier work"}, "[5]": {"conditions": "cited from earlier work; for Mean decrease in darunavir AUC: third trimester, ref 16 (Colbers, et al)"}, "[6]": {"tested_on": "HIV RNA", "conditions": "cited from earlier work"}, "[7]": {"conditions": "mean (95%CI), ref 16 (Colbers, et al), cited from earlier work"}, "[8]": {"assay": "Ritonavir pharmacokinetic parameters during pregnancy and postpartum", "assay_type": "in vivo, human", "conditions": "for AUC(0-t): AUC0-12, twice daily dosing; for AUC(0-t) / Cmax: median (interquartile range)"}, "[9]": {"conditions": "of 43 subjects, limit 0.09 μg/mL"}}, "note": "Where two headings read alike, the source gives them in different places.", "data": [{"smiles": "CC(C)CN(C[C@@H](O)[C@H](Cc1ccccc1)NC(=O)O[C@H]1CO[C@H]2OCC[C@H]21)S(=O)(=O)c1ccc(N)cc1", "note": "[darunavir]", "values": [{"measurement": "Maternal plasma delivery concentration", "setting": "[1]; median (range), samples above the limit of quantitation", "result": 1.98, "unit": "µg/mL"}, {"measurement": "Cord blood samples with concentration below the assay limit of quantitation", "setting": "[1]; [9]", "result": 15}, {"measurement": "Maternal samples with concentration below the assay limit of quantitation", "setting": "[1]; [9]", "result": 11}, {"measurement": "Subjects indicating side effects of darunavir as a reason for discontinuation", "setting": "[2]", "result": "No subjects"}, {"measurement": "Tolerability during pregnancy and postpartum", "setting": "[2]", "result": "well tolerated"}, {"measurement": "HIV-1 RNA at delivery", "setting": "[3]; Combined N=66", "result": "<50 (<50 - 66,142) copies/mL"}, {"measurement": "HIV-1 RNA at delivery", "setting": "[3]; Once Daily Dosing N=32", "result": "<50 (<50 - 35,313) copies/mL"}, {"measurement": "HIV-1 RNA at delivery", "setting": "[3]; Twice Daily Dosing N=34", "result": "51 (<50 - 66,142) copies/mL"}, {"measurement": "EC50 for wild type HIV", "setting": "[4]", "result": 0.06, "unit": "μ/mL"}, {"measurement": "Mean decrease in darunavir AUC", "setting": "[5]; 6 women, twice daily dosing", "result": 34, "unit": "%"}, {"measurement": "Decrease in darunavir AUC", "setting": "[5]; 14 women dosed twice daily, second and third trimesters, ref 15 (Zorrilla, et al)", "result": "17-24%"}, {"measurement": "Mean decrease in darunavir AUC", "setting": "[5]; 18 women, once daily dosing", "result": 22, "unit": "%"}, {"measurement": "Infected infants", "setting": "[6]; 12 mothers in the Zorrilla study who remained on therapy at delivery, 15 mothers in the Colbers study", "result": "no infected infants"}, {"measurement": "Women with HIV RNA below 1000 copies/mL approaching delivery", "setting": "[6]; once daily dosing, ref 24 (Colbers, et al)", "result": 93, "unit": "%"}, {"measurement": "Subjects with detectable HIV RNA (>50 copies/mL) during pregnancy", "setting": "[6]; twice daily dosing, ref 15 (Zorrilla, et al)", "result": "3 of 14"}, {"measurement": "Free fraction", "setting": "[7]; 14 women postpartum", "result": 10, "unit": "%"}, {"measurement": "Free fraction", "setting": "[7]; 19 women in the third trimester", "result": 12, "unit": "%"}]}, {"smiles": "CC(C)c1nc(CN(C)C(=O)N[C@H](C(=O)N[C@@H](Cc2ccccc2)C[C@H](O)[C@H](Cc2ccccc2)NC(=O)OCc2cncs2)C(C)C)cs1", "note": "[ritonavir]", "values": [{"measurement": "AUC(0-t)", "setting": "[8]; female, human, plasma, oral, postpartum", "result": 5600, "unit": "ng·h/mL"}, {"measurement": "AUC(0-t)", "setting": "[8]; female, human, plasma, oral, second trimester", "result": 3900, "unit": "ng·h/mL"}, {"measurement": "AUC(0-t)", "setting": "[8]; female, human, plasma, oral, third trimester", "result": 3800, "unit": "ng·h/mL"}, {"measurement": "Cmax", "setting": "[8]; female, human, plasma, oral, Cmax, once daily dosing, postpartum", "result": 640, "unit": "ng/mL"}, {"measurement": "Cmax", "setting": "[8]; female, human, plasma, oral, Cmax, twice daily dosing, second trimester", "result": 470, "unit": "ng/mL"}, {"measurement": "Cmax", "setting": "[8]; female, human, plasma, oral, Cmax, twice daily dosing, third trimester", "result": 460, "unit": "ng/mL"}, {"measurement": "Ritonavir exposure during pregnancy", "setting": "[8]; in vivo", "result": "reduced"}, {"measurement": "Cmax", "setting": "[8]; once daily dosing, second trimester", "result": 290, "unit": "ng/mL"}, {"measurement": "Cmax", "setting": "[8]; once daily dosing, third trimester", "result": 270, "unit": "ng/mL"}]}]}
